The values below come from patent US20090074844A1, “TRENADERMAL ABSORPTION PREPARATION” (ONO PHARMACEUTICAL CO., LTD., priority 2005, published 2009).

Series [1] can be described thus: In vitro skin permeability test (1), Franz type cell. Format: in vitro ADME, rat. Conditions: for cumulative permeation quantity until 24 hours: patch (pharmaceutical preparation 1A, 0.2 mg/cm^2) on rat abdominal skin, determined as compound B or PGE1, FIG. 1. As to the method: The hair-removed skin extracted from the abdominal region of each of male Wister rats (7 weeks of age, Wister/Slc, n=3) was attached to a Franz type cell (1.1 cm in diameter). The aforementioned pharmaceutical preparation 1A prepared in Example 1 was applied to the stratum corneum of the hair-removed skin extracted from the abdominal region. Hanks' buffer (HBSS) (Sigma, pH 7.4) was applied to the dermal layer side cell. HBSS (200 μL) was periodically collected from the dermal layer side cell, and compound B as the active form of compound A or PGE1 was determined by the HPLC method under the following conditions. Cumulative permeation quantities until 24 hours were determined to calculate average values.
Compound A (Active Form: Compound B)
Column: YMC-Pack ODS A-302 (4.6 mm I.d., 150 mm),
Column temperature: 50° C.,
Moving bed: 0.1% phosphoric acid aqueous solution: acetonitrile=7:3,
Detection wavelength: 220 nm,
Internal standard: ethyl p-hydroxybenzoate.
Column temperature: 30° C.,
Moving bed: 0.02 M potassium hydrogenphosphate aqueous solution:acetonitrile=3:2,
Detection wavelength: 205 nm,
Internal standard: n-propyl p-hydroxybenzoate.
FIG. 1 is a result of the in vitro skin permeability test (1) in Test Example (1) of Biological Examples. The cumulative permeation quantity of compound A represents a value calculated by converting the detected value of compound B into compound A.

The nature of series [2]: Drug permeability test using human skin, Franz type cell, LC/MS/MS. Format: in vitro ADME. Conditions: preparation of Example 3 (70 μg/cm^2, oleyl alcohol), slope of cumulative permeation quantities, FIG. 4, n=3. As to the method: Drug permeability test using human skin Human skin purchased from Asterand (abdominal skin of a person, epidermal-dermal skin (no heat treatment), n=3) was attached to a Franz type cell (1.78 cm^2), and the pharmaceutical preparation produced in Example 3 was applied to the stratum corneum side. Physiological saline (8 ml) was applied to the dermal layer side cell. From the dermal layer side cell, 1 ml portion thereof was periodically collected, and the compound A and compound B were determined by LC/MS/MS method under the following conditions. Cumulative permeation quantities until 48 hours were determined to calculate average values.
LC/MS/MS Measuring Conditions (HPLC)
Measuring instrument: Perkin-Elmer Series 200 Micro-pumps and CTC […]
Flow rate: 300 μl/minute Injection quantity: 5 μl Running time: 4.5 minutes Retention time: compound A; until 3.45 minutes/compound B; until 3.25 minutes Mass spectrometry […]
Human skin permeability of compound A and compound B which is its active form was measured to calculate the cumulative permeation quantities, with the results shown in FIG. 4. Their skin permeation rates were calculated from the slope of cumulative permeation quantities in FIG. 4. […]
FIG. 4 is a result of a human skin permeability test which used the pharmaceutical preparations produced in Example 3. It represents cumulatively detected amounts of compound A and compound B.

In the case of `CCCCC[C@H](O)/C=C/[C@H]1[C@H](O)CC(=O)[C@@H]1CCCCCCC(=O)O` [PGE1, reference compound], the “cumulative permeation quantity until 24 hours” value in series [1] (HBSS pH 7.4) is “high cumulative permeation quantity was not obtained”.
As to `COCc1cccc(C[C@H](O)/C=C/[C@H]2[C@H](O)CC(=O)[C@@H]2CCSCCCC(=O)OC)c1` [compound A, methyl 4-{[2-((1R,2R,3R)-3-hydroxy-2-{(1E,3S)-3-hydroxy-4-[3-(methoxymethyl)phenyl]but-1-enyl}-5-oxocyclopentyl)ethyl]sulfanyl}butanoate], in series [2], the skin permeation rate is 0.16±0.04 μg/cm^2/hr. Moreover, in series [1] (HBSS pH 7.4), the “cumulative permeation quantity until 24 hours” value was “high cumulative permeation quantity was obtained”. Besides, in series [1] (patch preparation 1A on rat abdominal skin), the “conversion of compound A into the active form, compound B, during permeation through the skin” value is “completely converted”. Also, the “compound A in the dermal layer side cell” value in series [1] (patch preparation 1A on rat abdominal skin, HBSS pH 7.4) is “not detected”.
The compound `COCc1cccc(C[C@H](O)/C=C/[C@H]2[C@H](O)CC(=O)[C@@H]2CCSCCCC(=O)O)c1` [compound B, 4-{[2-((1R,2R,3R)-3-hydroxy-2-{(1E,3S)-3-hydroxy-4-[3-(methoxymethyl)phenyl]but-1-enyl}-5-oxocyclopentyl)ethyl]sulfanyl}butanoic acid] showed a skin permeation rate in series [2] of 0.07±0.01 μg/cm^2/hr.
